pIC50: −log10 of the molar value.
molecular target: c-kit (Homo sapiens, UniProt P10721); assay: c-kit assays of Examples 40 and 41 (AlphaScreen kinase assays at 10 and 100 μM ATP, 33P-ATP filter assay, M-07e SCF-stimulated proliferation and phosphorylation)
Sequence (P10721 with tags, fused parts or gaps): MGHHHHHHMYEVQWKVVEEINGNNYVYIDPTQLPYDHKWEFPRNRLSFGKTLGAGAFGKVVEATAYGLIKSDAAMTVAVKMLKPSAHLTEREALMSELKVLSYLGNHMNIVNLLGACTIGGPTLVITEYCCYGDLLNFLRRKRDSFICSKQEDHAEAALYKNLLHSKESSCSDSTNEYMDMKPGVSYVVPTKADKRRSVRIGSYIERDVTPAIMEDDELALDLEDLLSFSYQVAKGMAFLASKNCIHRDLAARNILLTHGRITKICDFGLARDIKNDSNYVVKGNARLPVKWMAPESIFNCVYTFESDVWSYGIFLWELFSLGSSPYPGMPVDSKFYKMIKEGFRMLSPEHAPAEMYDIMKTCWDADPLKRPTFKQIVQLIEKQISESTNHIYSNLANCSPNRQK

Row | pIC50 | Compound
1 | > 6.00 | Cc1nc(NCc2ccc(C(F)(F)F)cc2)ccc1Cc1c[nH]c2ncccc12 [P-0013, [6-Methyl-5-(1H-pyrrolo[2,3-b]pyridin-3-ylmethyl)-pyridin-2-yl]-(4-trifluoromethyl-benzyl)-amine]
2 | > 6.00 | Fc1ccccc1CNc1ccc(Cc2c[nH]c3ncccc23)cn1 [P-0213, (2-Fluoro-benzyl)-[5-(1H-pyrrolo[2,3-b]pyridin-3-ylmethyl)-pyridin-2-yl]-amine]
3 | > 6.00 | c1ccc(CNc2ccc(Cc3c[nH]c4ncccc34)cn2)cc1 [P-0001, benzyl-[5-(1H-pyrrolo[2,3-b]pyridin-3-ylmethyl)-pyridin-2-yl]-amine]
4 | > 6.00 | Fc1ccc(F)c(CNc2ccc(Cc3c[nH]c4ncc(F)cc34)cn2)c1 [P-0329, (2,5-Difluoro-benzyl)-[5-(5-fluoro-1H-pyrrolo[2,3-b]pyridin-3-ylmethyl)-pyridin-2-yl]-amine]
5 | > 6.00 | COc1cccc(CNc2nc(Cl)c(Cc3c[nH]c4ncc(Cl)cc34)s2)n1 [P-0199, [4-Chloro-5-(5-chloro-1H-pyrrolo[2,3-b]pyridin-3-ylmethyl)-thiazol-2-yl]-(6-methoxy-pyridin-2-ylmethyl)-amine]
6 | > 6.00 | Fc1cc(Cl)ccc1CNc1ccc(Cc2c[nH]c3ncccc23)cn1 [P-0345, (4-Chloro-2-fluoro-benzyl)-[5-(1H-pyrrolo[2,3-b]pyridin-3-ylmethyl)-pyridin-2-yl]-amine]
7 | > 6.00 | Cc1ccc(CNc2ccc(Cc3c[nH]c4ncccc34)cn2)c(F)c1 [P-0368, (2-Fluoro-4-methyl-benzyl)-[5-(1H-pyrrolo[2,3-b]pyridin-3-ylmethyl)-pyridin-2-yl]-amine]
8 | > 6.00 | O=C(Nc1ccc(Cc2c[nH]c3ncccc23)cn1)c1ccncc1 [P-0105, N-[5-(1H-Pyrrolo[2,3-b]pyridin-3-ylmethyl)-pyridin-2-yl]-isonicotinamide]
9 | > 6.00 | Fc1ccc(CNc2ccc(Cc3c[nH]c4ncccc34)cn2)c(C(F)(F)F)c1 [P-0225, (4-Fluoro-2-trifluoromethyl-benzyl)-[5-(1H-pyrrolo[2,3-b]pyridin-3-ylmethyl)-pyridin-2-yl]-amine]
10 | > 6.00 | CCc1nc(C)c(CNc2nc(Cl)c(Cc3c[nH]c4ncccc34)s2)[nH]1 [P-0205, [4-Chloro-5-(1H-pyrrolo[2,3-b]pyridin-3-ylmethyl)-thiazol-2-yl]-(2-ethyl-5-methyl-3H-imidazol-4-ylmethyl)-amine]
11 | > 6.00 | N#Cc1cnc2[nH]cc(Cc3ccc(NCc4ccccc4OC(F)(F)F)nc3)c2c1 [P-0321, 3-[6-(2-Trifluoromethoxy-benzylamino)-pyridin-3-ylmethyl]-1H-pyrrolo[2,3-b]pyridine-5-carbonitrile]

The next lines start with the compound.

Row | Compound | pIC50
12 | O=C(Nc1ccc(Cc2c[nH]c3ncccc23)cn1)c1cccc(F)c1 [P-0121, 3-Fluoro-N-[5-(1H-pyrrolo[2,3-b]pyridin-3-ylmethyl)-pyridin-2-yl]-benzamide] | > 6.00
13 | Cc1nc(-c2ccc(C(F)(F)F)cc2)sc1Cn1nc(C)c(Cc2c[nH]c3ncccc23)c1C [P-0143, 3-{3,5-Dimethyl-1-[4-methyl-2-(4-trifluoromethyl-phenyl)-thiazol-5-ylmethyl]-1H-pyrazol-4-ylmethyl}-1H-pyrrolo[2,3-b]pyridine] | > 6.00
14 | O=C(c1ccc(NCc2ccc(F)cc2)nc1)c1c[nH]c2ncccc12 [P-0015, [6-(4-Fluoro-benzylamino)-pyridin-3-yl]-(1H-pyrrolo[2,3-b]pyridin-3-yl)-methanone] | > 6.00
15 | Fc1ccccc1CNc1ncc(Cc2c[nH]c3ncc(Cl)cc23)cn1 [P-0264, [5-(5-Chloro-1H-pyrrolo[2,3-b]pyridin-3-ylmethyl)-pyrimidin-2-yl]-(2-fluoro-benzyl)-amine] | > 6.00
16 | Cc1cc(C(=O)Nc2ccc(Cc3c[nH]c4ncccc34)cn2)n(C)n1 [P-0102, 2,5-Dimethyl-2H-pyrazole-3-carboxylic acid [5-(1H-pyrrolo[2,3-b]pyridin-3-ylmethyl)-pyridin-2-yl]-amide] | > 6.00
17 | COc1cnc2[nH]cc(Cc3ccc(NCc4ccc(OC)nc4)nc3)c2c1 [P-0332, (6-Methoxy-pyridin-3-ylmethyl)-[5-(5-methoxy-1H-pyrrolo[2,3-b]pyridin-3-ylmethyl)-pyridin-2-yl]-amine] | > 6.00
18 | Fc1ccccc1CNc1nc(Cl)c(Cc2c[nH]c3ncc(Cl)cc23)s1 [P-0246, [4-Chloro-5-(5-chloro-1H-pyrrolo[2,3-b]pyridin-3-ylmethyl)-thiazol-2-yl]-(2-fluoro-benzyl)-amine] | > 6.00
19 | Fc1ccc(C(F)(F)F)cc1CNc1ncc(Cc2c[nH]c3ncc(Cl)cc23)cn1 [P-0289, [5-(5-Chloro-1H-pyrrolo[2,3-b]pyridin-3-ylmethyl)-pyrimidin-2-yl]-(2-fluoro-5-trifluoromethyl-benzyl)-amine] | > 6.00
20 | FC(F)Oc1ccccc1CNc1ncc(Cc2c[nH]c3ncccc23)cn1 [P-0312, (2-Difluoromethoxy-benzyl)-[5-(1H-pyrrolo[2,3-b]pyridin-3-ylmethyl)-pyrimidin-2-yl]-amine] | > 6.00
21 | Fc1ccc(CNc2ncc(Cc3c[nH]c4ncccc34)cn2)c(Cl)c1 [P-0316, (2-Chloro-4-fluoro-benzyl)-[5-(1H-pyrrolo[2,3-b]pyridin-3-ylmethyl)-pyrimidin-2-yl]-amine] | > 6.00
22 | COc1ccc(Cc2c[nH]c3nccc(-c4ccsc4)c23)cn1 [P-0022, 3-(6-Methoxy-pyridin-3-ylmethyl)-4-thiophen-3-yl-1H-pyrrolo[2,3-b]pyridine] | > 6.00
23 | Fc1cnc2[nH]cc(Cc3ccc(NCc4ccccc4Cl)nc3)c2c1 [P-0327, (2-Chloro-benzyl)-[5-(5-fluoro-1H-pyrrolo[2,3-b]pyridin-3-ylmethyl)-pyridin-2-yl]-amine] | > 6.00
24 | CC(Nc1ccc(Cc2c[nH]c3ncccc23)cn1)c1ccc(S(C)(=O)=O)cc1 (stereo not drawn) [P-0097, [1-(4-Methanesulfonyl-phenyl)-ethyl]-[5-(1H-pyrrolo[2,3-b]pyridin-3-ylmethyl)-pyridin-2-yl]-amine] | > 6.00
25 | Cc1cc(C(=O)Nc2ccc(Cc3c[nH]c4ncccc34)cn2)ccc1F [P-0109, 4-Fluoro-3-methyl-N-[5-(1H-pyrrolo[2,3-b]pyridin-3-ylmethyl)-pyridin-2-yl]-benzamide] | > 6.00
26 | Fc1c(Cl)cccc1CNc1ncc(Cc2c[nH]c3ncc(Cl)cc23)cn1 [P-0392, (3-Chloro-2-fluoro-benzyl)-[5-(5-chloro-1H-pyrrolo[2,3-b]pyridin-3-ylmethyl)-pyrimidin-2-yl]-amine] | > 6.00
27 | Clc1cccc(CNc2ccc(Cc3c[nH]c4ncccc34)cn2)c1 [P-0129, (3-chloro-benzyl)-[5-(1H-pyrrolo[2,3-b]pyridin-3-ylmethyl)-pyridin-2-yl]-amine] | > 6.00
28 | COc1cccc(C(=O)Nc2ccc(Cc3c[nH]c4ncccc34)cn2)c1 [P-0120, 3-Methoxy-N-[5-(1H-pyrrolo[2,3-b]pyridin-3-ylmethyl)-pyridin-2-yl]-benzamide] | > 6.00
29 | Fc1ccc(Cl)cc1CNc1ccc(Cc2c[nH]c3ncccc23)cn1 [P-0382, (5-Chloro-2-fluoro-benzyl)-[5-(1H-pyrrolo[2,3-b]pyridin-3-ylmethyl)-pyridin-2-yl]-amine] | > 6.00
30 | COc1cc(C(=O)Nc2ccc(Cc3c[nH]c4ncccc34)cn2)ccn1 [P-0104, 2-Methoxy-N-[5-(1H-pyrrolo[2,3-b]pyridin-3-ylmethyl)-pyridin-2-yl]-isonicotinamide] | > 6.00
